The results in this text go back to patent US7087616B2, “Pyrazolyl pyrimidines” (Bayer CropScience AG, priority 2001, dated 2006).

System in one data set: not listed separately
The experiment in a line: logP determination by HPLC (EEC Directive 79/831 Annex V.A8). Format: physicochemical. Conditions: pH 2.3; HPLC reversed-phase column (C 18), 43° C.; read-out: log P(pH 2.3). On the procedure: The stated logp values were determined in accordance with EEC Directive 79/831 Annex V.A8 by HPLC (High Performance Liquid Chromatography) using a reversed-phase column (C 18). Temperature: 43° C.
Mobile phases for the determination in the acidic range: 0.1% aqueous phosphoric acid, acetonitrile; linear gradient from 10% acetonitrile to 90% acetonitrile.
Calibration was carried out using unbranched alkane-2-ones (having 3 to 16 carbon atoms) with known logp values (determination of the logp values by the retention times using linear interpolation between two successive alkanones).
Consider `CN(CC(=O)OCC(F)(F)C(F)(F)C(F)(F)C(F)F)c1nccc(-n2cccn2)n1` [Example 73], for which the chromatographic logP turned out to be 3.46.
For the compound `CC(OC(=O)CSc1nccc(-n2cc(Br)cn2)n1)C(F)(F)C(F)(F)C(F)(F)F` (stereo not shown) [Example 94], the chromatographic logP turned out to be 4.73.
Same read-out and setting: next, `O=C(CSc1nccc(-n2cccn2)n1)OCC(F)(F)C(F)(F)C(F)(F)C(F)F` [Example 58]: 3.42; `COc1cnn(-c2ccnc(SCC(=O)OC(C)C(F)(F)C(F)(F)C(F)(F)F)n2)c1` (stereo not shown) [Example 93]: 4.14; `O=C(CSc1nccc(-n2cc(Br)cn2)n1)OCC(F)(F)C(F)(F)C(F)(F)F` [Example 90]: 4.34.
Take `CN(CC(=O)OCC(F)(F)C(F)(F)F)c1nccc(-n2cccn2)n1` [Example 60]: the chromatographic logP was 3.2.
For the compound `CN(CC(=O)OCC(F)(F)C(F)(F)C(F)(F)F)c1nccc(-n2cc(Cl)cn2)n1` [Example 83], the chromatographic logP came to 4.46.
As for `COc1cnn(-c2ccnc(SCC(=O)OCC(F)(F)C(F)(F)C(F)(F)F)n2)c1` [Example 91], the chromatographic logP was determined as 3.78.

Staying with this data set, now noted: reversed-phase HPLC column (C 18); pH 2.3; HPLC reversed-phase column (C 18), 43° C.
`CCOC(=O)CN(C)c1nccc(-n2cccn2)n1` [Example 3, ethyl N-methyl-N-[4-(1H-pyrazol-1-yl)-2-pyrimidinyl]glycinate] displayed a chromatographic logP of 2.1.
With `CCOC(=O)CSc1nccc(Br)n1` [Ethyl [(4-bromo-2-pyrimidinyl)thio]acetate], the chromatographic logP came to 2.27.
Turning to `CCOC(=O)CSc1nccc(-n2nccc2[N+](=O)[O-])n1` [Example 2, ethyl {[4-(5-nitro-1H-pyrazol-1-yl)-2-pyrimidinyl]thio}acetate], the chromatographic logP stood at 2.55.
In turn, `CCOC(=O)CSc1nccc(-n2cc(C)cn2)n1` [Example 1, ethyl {[4-(4-methyl-1H-pyrazol-1-yl)-2-pyrimidinyl]thio}acetate] returned a chromatographic logP of 2.28.

The data set is the same for the next values; noted with them: reversed-phase HPLC column (C 18); pH 2.3; HPLC reversed-phase column (C 18), 43° C.; read-out: log P(pH 2.3).
In the case of `CCOC(=O)CSc1nccc(-n2ncc3ccccc32)n1` [Example 22], the chromatographic logP is 3.34.
Consider `CCOC(=O)CSc1nccc(-n2ncc(SC(F)(F)F)c2C)n1` [Example 9], for which the chromatographic logP stood at 4.08.
In the case of `CN(CC(=O)O)c1nccc(-n2cc(Cl)cn2)n1` [Example 63], the chromatographic logP turned out to be 1.82.
Consider `CCOC(=O)CSc1nccc(-n2cc(SC(F)(F)C(F)F)cn2)n1` [Example 102], for which the chromatographic logP is 3.45.
Take `CCOC(=O)CSc1nccc(-n2cc(Cl)cn2)n1` [Example 19]: the chromatographic logP is 3.01.
As for `CC(OC(=O)CSc1nccc(-n2cc(Br)cn2)n1)C(F)(F)C(F)(F)F` (stereo not shown) [Example 92], the chromatographic logP stood at 4.3.
On to `CCOC(=O)CSc1nccc(-n2cc(C(=O)OCC)cn2)n1` [Example 47], for which the chromatographic logP was 2.79.
Take `CCOC(=O)CN(C)c1nccc(-n2cc(OC(C)C)cn2)n1` [Example 51]: the chromatographic logP came to 2.89.
`CCOC(=O)CSc1nccc(-n2ncc3c2CCCC3)n1` [Example 18]: the chromatographic logP is 3.34.
Take `CCOC(=O)CSc1nccc(-n2cc(C(F)(F)F)cn2)n1` [Example 64]: the chromatographic logP was 3.27.
Take `CCOC(=O)CSc1nccc(-n2cc(CC)cn2)n1` [Example 55]: the chromatographic logP stood at 2.99.
In the case of `CCOC(=O)CSc1nccc(-n2cc(Br)c(N)n2)n1` [Example 41], the chromatographic logP was 2.18.
Take `CCOC(=O)CSc1nccc(-n2cc(N)cn2)n1` [Example 99]: the chromatographic logP came to 0.94.
For the compound `COc1cnn(-c2ccnc(SCC(=O)O)n2)c1` [Example 84], the chromatographic logP was determined as 1.45.
Turning to `C=Cc1cnn(-c2ccnc(SCC(=O)OCC)n2)c1` [Example 96], the chromatographic logP turned out to be 2.87.
`COc1cnn(-c2ccnc(N(C)CC(=O)O)n2)c1` [Example 61]: the chromatographic logP amounted to 1.14.
`CCOC(=O)CSc1nccc(-n2cccn2)n1` [Example 5]: the chromatographic logP is 2.19.
The same measure, in the same setting: the result for `COC(=O)CSc1nccc(-n2cc(Br)cn2)n1` [Example 7] reads 2.69; that for `CCOC(=O)CSc1nccc(-n2cc([N+](=O)[O-])cn2)n1` [Example 12], 2.56; that for `CCOC(=O)CSc1nccc(-n2cc(C(C)=O)cn2)n1` [Example 95], 2.07.
In the case of `CCOC(=O)CN(CC(C)C)c1nccc(-n2cccn2)n1` [Example 69], the chromatographic logP turned out to be 3.57.
Turning to `O=C(O)CSc1nccc(-n2cc(Br)cn2)n1` [Example 76], the chromatographic logP turned out to be 1.91.
As for `CCOC(=O)CSc1nccc(-n2cc(C#N)cn2)n1` [Example 13], the chromatographic logP came out at 2.32.
With `C#Cc1cnn(-c2ccnc(SCC(=O)OCC)n2)c1` [Example 74], the chromatographic logP was determined as 2.71.
For `CN(CC(=O)O)c1nccc(-n2cc(Br)cn2)n1` [Example 62], the chromatographic logP is 1.91.
For `CCOC(=O)CN(CC)c1nccc(-n2cccn2)n1` [Example 46], the chromatographic logP was found to be 2.53.
Regarding `CCOC(=O)CSc1nccc(-n2cc(OC(C)C)cn2)n1` [Example 20], the chromatographic logP was 3.15.
Turning to `COc1cnn(-c2ccnc(SCC(=O)OCC(F)(F)F)n2)c1` [Example 101], the chromatographic logP turned out to be 2.87.
The same measure, in the same setting: next, `O=C(CSc1nccc(-n2cccn2)n1)OCCCl` [Example 33]: 2.3; `O=C(O)CSc1nccc(-n2cc(Cl)cn2)n1` [Example 82]: 1.81; `CCOC(=O)CSc1nccc(-n2nc(C(F)(F)F)cc2C(F)(F)F)n1` [Example 15]: 4.03.
For `CCOC(=O)CSc1nccc(-n2nc(C)c(Cl)c2C)n1` [Example 16], the chromatographic logP was determined as 3.83.
`CCOC(=O)CSc1nccc(-n2cc3ccccc3n2)n1` [Example 23]: the chromatographic logP came to 3.11.
As to `CCOC(=O)CSc1nccc(-n2ccc(-c3ccc(Cl)cc3)n2)n1` [Example 8], the chromatographic logP is 4.5.
On to `CCOC(=O)CSc1nccc(-n2nc(C#N)c3ccccc32)n1` [Example 17], for which the chromatographic logP is 3.64.
Regarding `CCOC(=O)CSc1nccc(-n2ccc(C)n2)n1` [Example 14], the chromatographic logP was found to be 2.51.

The next data set concerns peach aphids (Myzus persicae). Put plainly: Myzus Test/Cabbage. Conditions: 144 h, 500 ppm, Table B 1, cabbage leaves dipped, read-out: Kill rate in % after 6d. In kind it is in vivo. How it is done:
(§1) To produce a suitable preparation of active compound, 1 part by weight of active compound is mixed with the stated amounts of solvent and emulsifier, and the concentrate is diluted with emulsifier-containing water to the desired concentration.
Cabbage leaves (Brassica oleracea) which are heavily infested by peach aphids (Myzus persicae) are treated by being dipped into the preparation of active compound of the desired concentration.
(§2) After the desired period of time, the kill in % is determined. 100% means that all aphids have been killed; 0% means that none of the aphids have been killed.
Amounts of solvent, amounts of emulsifier, active compounds, active compound concentrations and test results are shown in the Tables below.
Turning to `CCOC(=O)CSc1nccc(-n2cc(Br)cn2)n1`, the pest or weed control at 500 ppm was determined as 100%.
On the same count and under the same terms, next, `CCOC(=O)CSc1nccc(-n2cccn2)n1` [drawing 174]: 95%.

Still in this data set, the particulars now being: 144 h, 500 ppm, Table B 2, cabbage leaves dipped, read-out: Kill rate in % after 6d.
For `O=C(CSc1nccc(-n2cccn2)n1)OCC(F)(F)C(F)F`, the pest or weed control at 500 ppm amounted to 100%.
Regarding `O=C(O)CSc1nccc(-n2cc(Br)cn2)n1` [drawing 186], the pest or weed control at 500 ppm amounted to 100%.
With `O=C(CSc1nccc(-n2cccn2)n1)OC(C(F)(F)F)C(F)(F)F`, the pest or weed control at 500 ppm is 100%.
On the same count and under the same terms, the result for `O=C(CSc1nccc(-n2cccn2)n1)OCC(Cl)Cl` reads 100%; that for `COc1cnn(-c2ccnc(N(C)CC(=O)OCC(F)(F)F)n2)c1`, 100%; that for `COc1cnn(-c2ccnc(SCC(=O)O)n2)c1` [drawing 190], 100%.
For `O=C(CSc1nccc(-n2cccn2)n1)OCC(F)(F)F`, the pest or weed control at 500 ppm is 100%.
With `CCOC(=O)CSc1nccc(-n2cc(C(F)(F)F)cn2)n1` [drawing 188], the pest or weed control at 500 ppm was found to be 100%.
Take `CCOC(=O)CSc1nccc(-n2cc(-c3ccc(Cl)cc3)cn2)n1`: the pest or weed control at 500 ppm worked out at 100%.
With `CCOC(=O)CSc1nccc(-n2cc(-c3ccccc3)cn2)n1` [drawing 177], the pest or weed control at 500 ppm was 100%.
Same read-out and setting: next, `O=C(CSc1nccc(-n2cccn2)n1)OCC(F)(F)C(F)(F)F`: 100%.

Still in this data set, the particulars now being: 144 h, read-out: Kill rate in % after 6d.
Consider `COc1cnn(-c2ccnc(N(C)CC(=O)OCC(F)(F)C(F)(F)C(F)(F)F)n2)c1`, for which the pest or weed control at 500 ppm stood at 100%.
Regarding `CC(OC(=O)CSc1nccc(-n2cc(Cl)cn2)n1)C(F)(F)C(F)(F)C(F)(F)F` (stereo not shown) [drawing 191], the pest or weed control at 500 ppm is 100%.
Turning to `COc1cnn(-c2ccnc(SCC(=O)OC(C)C(F)(F)C(F)(F)C(F)(F)F)n2)c1` (stereo not shown) [drawing 192], the pest or weed control at 500 ppm was determined as 100%.
Consider `CN(CC(=O)OCC(F)(F)C(F)(F)C(F)(F)F)c1nccc(-n2cc(Cl)cn2)n1` [drawing 189], for which the pest or weed control at 500 ppm was 100%.
In the case of `O=C(CSc1nccc(-n2cccn2)n1)OCC(F)(F)C(F)(F)C(F)(F)F`, the pest or weed control at 500 ppm is 100%.
In the case of `CC(OC(=O)CSc1nccc(-n2cc(Br)cn2)n1)C(F)(F)C(F)(F)C(F)(F)F` (stereo not shown) [drawing 193], the pest or weed control at 500 ppm turned out to be 100%.
`CN(CC(=O)OCC(F)(F)C(F)(F)C(F)(F)F)c1nccc(-n2cccn2)n1`: the pest or weed control at 500 ppm is 100%.

In the next data set the test system is cotton aphid (Aphis gossypii). The experiment in a line: Aphis gossypii Test. Format: in vivo. The following applies: 144 h, 500 ppm, cotton leaves dipped, read-out: Kill rate in % after 6d. On the procedure:
as §1
Cotton leaves (Gossypium hirsutum) which are heavily infested by the cotton aphid (Aphis gossypii) are treated by being dipped into the preparation of active compound of the desired concentration.
as §2
With `CCOC(=O)CSc1nccc(-n2cc(SC(F)(F)C(F)F)cn2)n1` [drawing 206], the pest or weed control at 500 ppm came to 90%.
Turning to `COc1cnn(-c2ccnc(SCC(=O)OCC(F)(F)F)n2)c1` [drawing 205], the pest or weed control at 500 ppm stood at 100%.
